Columns and labels:
Assay type in all cases: cell-based, human
[1] = test system: THP-1 cells; assay: PAI-1, M-CSF and kynurenine in supernatants of differentiated THP-1 cells; settings: THP-1; PD98059
Procedure: THP-1 cells were cultured at a concentration of 1×10^6/mL in AIM V medium. Cells were differentiated using […] phorbol 12-myristate 13-acetate (PMA) on day 0 and 100 ng/mL LPS on day 3 in the presence or absence of 100 μg/mL MUC1-ST or MUC1-T. Cell supernatants were harvested on day 5 and PAI-I concentration measured by ELISA.
Given that IDO catalyzes the rate-limiting step in the metabolism of tryptophan, the tryptophan metabolite kynurenine was detected as follows. 604, supernatant was mixed with 304, 30% trichloroacetic acid (TCA) and incubated for 30 minutes at 50° C. The supernatant was spun at 3000×g and 50 μL was harvested and mixed with 50 μL freshly prepared Ehrlich Reagent (2% p-dimethylaminobenzaldehyde in glacial acetic acid). After 10 minutes optical density (O.D.) was measured at 492 nm, and concentrations were calculated against a kynurenine standard curve. An increase in the tryptophan metabolite kynurenine was observed (FIG. 11D).
The intracellular effects of MUC1-ST binding to Siglec-9 were further explored in the monocytic cell line, THP-1. THP-1 cells were cultured for three days at a concentration of 1×10^6/mL in AIM V medium and differentiated using […] phorbol 12-myristate 13-acetate (PMA) in the presence or absence of 100 μg/mL MUC1-ST. […] THP-1 cells were further treated with DMSO or the MEK/ERK inhibitor PD98059 at 1004, and the concentration of PAI-1, M-CSF and kynurenine in cell supernatants were measured as described above. […] This increase in concentration was blocked by the MEK/ERK inhibitor PD98059 (FIG. 4I).

[2] = test system: allogeneic CD8+ T cells; assay: Co-culture of MUC1-ST treated macrophages with allogeneic CD8+ T cells; settings: MEK signalling inhibited in the macrophages (FIG. 13K)
Procedure: Thereafter, the effects of MUC1-ST educated macrophages on T cell function were analyzed. Macrophages treated with MUC1-ST were co-cultured with eFluor® 670 labelled allogeneic CD8+ T cells in the presence of absence of anti-Siglec-9 antibody or isotype control. Indeed, macrophages that had been educated with MUC1-ST were decreased in their ability to stimulate the proliferation of allogeneic CD8 T cells (FIG. 11E). […] (FIG. 11F). This profile of expression and functional activity is indicative of tumor-associated macrophages (TAMs), which play a role in promoting tumor progression (Noy et al. (2014) IMMUNITY 41: 49-61; Sousa et al. (2015) BREAST CANCER RES. 17: 101; Qian et al. (2010) CELL 141: 39-45).

[3] = test system: monocytes from PBMCs; assay: MUC1-ST mediated TAM formation in monocytes from PBMCs, 7 day serum-free culture; settings: PD98059 at 10 μM
Procedure: To further explore the role of MUC1-ST in inducing a TAM-like phenotype, monocytes from PBMCs were plated in serum-free medium, incubated with MUC1-ST or PBS, and cultured for 7 days.
Intracellular calcium flux can lead to activation of the MEK/ERK pathway (Christo et al. (2015) IMMUNOL. AND CELL BIOLOGY 93: 694-704). […] Furthermore, treatment with the MEK inhibitor PD98059 at 10 μM inhibited MUC1-ST mediated TAM formation in monocytes (FIGS. 12B, 12D-12E).

[4] = test system: MUC1-ST educated monocytes and macrophages; assay: Secretion of PAI-1 and M-CSF from MUC1-ST educated monocytes and macrophages with PD98059 or verapamil
Procedure: ELISAs for IL-6, IL-12p70, TGF-β1, PAI-1, M-CSF, EGF, SHP2, phospho-SHP2 (Biotechne) were all carried out as per manufacturer's instructions.
To explore this, the secretion of PAI-1 and M-CSF from MUC1-ST educated monocytes and macrophages was measured following treatments with 1 μM PD98059 or 20 μM verapamil for 20 minutes at 37° C., where indicated.

[5] = test system: M-CSF macrophages differentiated with LPS and IFNγ; assay: Differentiation of monocytes into M(LPS+IFNγ) macrophages: CD86 and IL-12; settings: blocking antibodies
Procedure: Both the cell phenotype staining and neutralization studies described in the Examples were performed using the following antibodies (all anti-human): Siglec-9 (Biotechne; 191240), Siglec-9 FITC (Biotechne; 191240), Siglec-3 (Biotechne; 6C5/2), Siglec-7 (Biotechne; AF1138), Siglec-3 FITC (BD; P67.6), Siglec-7 PE (Biolegend; 6-434), Siglec-10 PE (Biolegend; 5G6), Siglec-1 (abcam; 7D2), HLA-DR FITC (Beckman Coulter; IM0463U), CD16 FITC (Biolegend; B73.1), CD14 FITC (BD 555397), CD69 PE (Beckman Coulter; IM1943), CD25 FITC (ABX228FITC), CD86 PE (Beckman Coulter; IM2729U), CD40 FITC (BD 555588), CD83 PE (Beckman Coulter; IM2218), CD163 PE (Biolegend; GHI/61), CXCR1 FITC (BD Pharmongen; 551126), CD45 PC5 (Beckman Coulter; IM2653U), CD206 PE (ebioscience; 19.2), PD-L1 PE (Biolegend; 29E.2A3), CD36 (Santa Cruz; H-300), TGFbetaRII (Bio-Techne; AF-241), IL-6Rα (Tocilizumab; Roche. A generous gift from Dr. Valerie Corrigall). […] At least 1×10^4 events were evaluated using either Epics XL, (Beckman Coulter) or FACSCalibur (BD Biosciences) flow cytometers. […]
Given that IL-6 and NO are known differentiation modulators (Oosterhoff et al. (2012) ONCOIMMUNOLOGY 1: 649-658; Bogdan (2015) TREND IMMUNOL. 36: 161-178) the effects of MUC1-ST on the differentiation of monocytes into macrophages was assessed. […]

[6] = test system: CD8+ T cells; assay: Co-culture of MUC1-ST educated M-CSF macrophages with CD3/CD28 stimulated autologous T cells; settings: antibody present
Procedure: In addition, primary monocytes were induced to differentiate to macrophages in the presence of MUC1-ST and then co-cultured for 48 hours with CD3/CD28 stimulated autologous CD8+ or CD4+ T cells. T cell proliferation and CD69/CD25 cell surface expression were measured using flow cytometry.

[7] = test system: monocyte derived dendritic cells; assay: Differentiation of monocytes into dendritic cells; settings: 10 μg/10^6 cells anti-Siglec-9 before MUC1-ST; 10 μg/ml anti-IL-6Rα every 2 days
Procedure: To differentiate monocytes into macrophages, CD14+ cells were plated at a concentration of 1×10^6/mL in AIM V medium (Lonza) with either 50 ng/mL recombinant human M-CSF or 50 ng/mL recombinant human GM-CSF (Bio-Techne). The cytokines were added every 3 days. The cells were incubated at 37° C., 5% CO2 for 7 days to fully differentiate, before being characterized as macrophages via phenotypic flow cytometric analysis. To differentiate monocytes into dendritic cells (moDC), CD14+ cells were plated at a concentration of 1×10^6/mL in AIM V medium with 1500 U/mL recombinant human IL-4 (Bio-Techne) and 400 U/mL human GM-CSF (Bio-Techne) for 6 days to fully differentiate, before being characterized as immature DCs via phenotypic flow cytometric analysis (Epics XL, Beckman Coulter or FACSCalibur, BD Biosciences plus WinMDI or Cellquest software). MoDCs were matured using 1 μg/mL LPS for 24 hours.
In addition, the effects of MUC1-ST on the differentiation of monocytes into dendritic cells were assessed. Briefly, monocytes were treated with MUC1-ST on day 0 and differentiated into immature dendritic cells (DCs) using IL-4 (1500 U/mL) and GM-CSF (400 U/mL) in AIM-V media for 6 days. Immature DCs were matured using 1 μg/mL LPS for 24 hours. […]

[8] = 1 μM PD98059, 20 minutes at 37° C.
[9] = 20 μM verapamil, 20 minutes at 37° C.

## COc1cccc(-c2cc(=O)c3ccccc3o2)c1N [PD98059, reference compound]
[1]
  MUC1-ST induced increase in PAI-1, kynurenine and M-CSF concentration: blocked
[2]
  repression of T cell proliferation by MUC1-ST treated macrophages: could be overcome
[3]
  MUC1-ST mediated TAM formation in monocytes: inhibited
[4]; [8]
  secretion of M-CSF: significantly inhibited
  secretion of PAI-1: significantly inhibited

## COc1ccc(CCN(C)CCCC(C#N)(c2ccc(OC)c(OC)c2)C(C)C)cc1OC (stereo not shown) [verapamil]
[4]; [9]
  secretion of M-CSF: significantly inhibited
  secretion of PAI-1: significantly inhibited

## Tocilizumab [anti-IL-6Rα, reference compound]
[5]
  rescue of MUC1-ST induced lowering of CD86 and IL-12: partially rescued
[6]
  reversal of the inhibition of CD8+ T cell activation: could be reversed
[7]
  reversal of the effect of MUC1-ST on differentiation of dendritic cells: significantly reverse

Source: patent US20190211099A1, “METHODS AND COMPOSITIONS FOR TREATING CANCER WITH SIGLEC-9 ACTIVITY MODULATORS” (KING'S COLLEGE LONDON, priority 2016, published 2019)
